{
  "source": "patent US20170333565A1",
  "about": "“TLR9 TARGETED CYTOTOXIC AGENTS” (H. LEE MOFFITT CANCER CENTER AND RESEARCH INSTITUTE, INC., priority 2014, published 2017)",
  "origin": "cited, not measured here",
  "tested_on": "myelodysplastic syndromes (MDS)",
  "settings": "cited from earlier work",
  "data": [
    {"smiles": "Nc1cccc2c1CN(C1CCC(=O)NC1=O)C2=O", "note": "(centres unmarked) [LEN, lenalidomide]", "values": [
      {"measurement": "clinical response", "setting": "majority of patients with a chromosome 5q deletion (del5q)", "result": "sustained red blood cell transfusion independence"},
      {"measurement": "median duration of response", "setting": "patients with del5q MDS", "result": 2.5, "unit": "years"}
    ]}
  ]
}
